Test results published in patent US20260364013A1, “COMPOSITION AND METHOD OF PREPARATION OF BLOACTIVE TRITERPENOID MILK FAT GLOBULE FORMULATIONS” (EFNATICS B.V., priority 2023, published 2026).

Key:
tumor [1] = assay: Anti-tumor effect in mice after oral liposomal betulinic acid; type: in vivo; details: extrapolated from 150 mg/kg weekly oral dose in mice
[2] = tested on: non-cancerous healthy cells; details: in vitro; cited from earlier work
[3] = at concentrations effectively limiting cancer growth, up to 500 mg per kg bodyweight; cited from earlier work
[4] = tested on: stearoyl-CoA-desaturase (SCD-1); details: role: inhibitor; cited from earlier work
cancer cell lines = details: cited from earlier work
tumor [5] = details: oral, liposomal betulinic acid; cited from earlier work
[6] = at a range of molar ratios; cited from earlier work
[7] = tested on: tumor growth of predominant cancer types; details: preclinically in vivo; cited from earlier work

SMILES	Weekly dose extrapolated to an individual of 80 kg (tumor [1])	Cytotoxicity for non-cancerous healthy cells [2]	Signs of toxicity in animal experiments [3]	Effect on SCD-1 activity [4]	Activity against cancer types in vitro (cancer cell lines)	Weekly orally administered dose required for the observed anti-tumor effects in mice (tumor [5])	Miscibility with outer leaflet membrane phospholipids [6]	Tumor growth inhibition [7]
C=C(C)[C@@H]1CC[C@]2(C(=O)O)CC[C@]3(C)[C@H](CC[C@@H]4[C@@]5(C)CC[C@H](O)C(C)(C)[C@@H]5CC[C@]43C)[C@@H]12 [betulinic acid, (3β)-3-Hydroxylup-20 (29)-en-28-oic acid]	12 gr	absent	no signs of toxicity were observed	inhibit the activity of stearoyl-CoA-desaturase (SCD-1)	broad activity against all prevalent cancer types in vitro	150 mg/kg bodyweight	miscible	inhibits tumor growth of predominant cancer types
C=C(C)[C@@H]1CC[C@]2(C)CC[C@]3(C)[C@H](CC[C@@H]4[C@@]5(C)CC[C@H](O)C(C)(C)[C@@H]5CC[C@]43C)[C@@H]12 [lupeol, (3β)-Lup-20 (29)-en-3-ol]	–	–	–	–	–	–	miscible	–
